How the values were obtained:
[1] = test system: A549 human lung cancer cell line; assay: CellTiter 96 Aqueous One relative growth assay; assay type: cell-based
[2] = test system: H1650 human lung cancer cell line; assay: CellTiter 96 Aqueous One relative growth assay; assay type: cell-based
[3] = test system: CaCo-2 human colon cancer cell line; assay: CellTiter 96 Aqueous One relative growth assay; assay type: cell-based; conditions: Sorafenib up to 5 μM, Atorvastatin up to 40 μM
[4] = test system: SW48 human colon cancer cell line; assay: CellTiter 96 Aqueous One relative growth assay; assay type: cell-based
Description: The SW48 human colon cancer cell line was procured from ATCC (American Type Culture Collection, Manassas, Va.).

[5] = cited from earlier work
HCT116 xenograft = assay: mouse xenograft model of HCT116
CAPAN1 xenograft = assay: mouse xenograft model of CAPAN1
[6] = test system: HCT116 human colon cancer cell line; assay: CellTiter 96 Aqueous One relative growth assay
[7] = BMS-303141 up to 20 μM, Sorafenib 3 μM and 5 μM
[8] = Sorafenib up to 5 μM, Atorvastatin up to 40 μM
[9] = oral 100 mg solution formulation

## CNC(=O)c1cc(Oc2ccc(NC(=O)Nc3ccc(Cl)c(C(F)(F)F)c3)cc2)ccn1 [Sorafenib, 4-[4-[[4-chloro-3-(trifluoromethyl)phenyl]carbamoylamino]phenoxy]-N-methylpyridine-2-carboxamide]
[1]; [7]
  cell viability (FIG. 78): negligible decrease
[1]; [8]
  cell viability (FIG. 71): negligible decrease
[2]; [7]
  cell viability (FIG. 79): minor decrease
[2]; [8]
  cell viability (FIG. 72): negligible decrease
[3]
  cell viability (FIG. 74): negligible effect
[4]; [7]
  cell viability (FIG. 81): minimal decrease
[4]; Sorafenib up to 5 μM, Atorvastatin up to 10 μM
  cell viability (FIG. 75): negligible effect
[5]; high-fat meal compared to fasted state
  bioavailability reduced by: about 29%
[5]; in vivo
  Half-life: 25 to 48 h
[5]; [9]
  dose excreted in feces: 77%
  dose excreted in urine as glucuronidated metabolites: 19%
[5]; oral 100 mg solution formulation, within 14 days
  dose recovered: 96%
[5]; plasma, steady-state
  share of the circulating analytes in plasma at steady-state: 70-85%
HCT116 xenograft
  body weight: not significantly affected
  survival (Kaplan-Meier survival curve): prolonged survival rates
HCT116 xenograft; at 19 days
  inhibition of tumor volume / tumor growth: 16%
CAPAN1 xenograft
  body weight: not significantly affected
  survival (Kaplan-Meier survival curve): slightly prolonged survival rates
[6]; [7]
  cell viability (FIG. 80): a decrease
[6]; [8]
  cell viability (FIG. 73): insignificant decrease

Reference: patent US20160058751A1, “COMPOSITION AND METHOD FOR TREATING CANCER” (CELLWORKS GROUP, INC., priority 2013, published 2016)
